Measured values published in PMC10743537 (2023).

Tested on: nicked decamer duplex 3 (DNA, duplex, PEG(6) tether between positions 5 and 6 (C10/G11 in paper numbering) and between positions 15 and 16 (C20/G1); nick between T5 (3' end, position 20) and G6 (5' end, position 1)) GTCGCGCGACAACGCGCGTT
Assay: NMR diffusion (DOSY)
Conditions: 25 mM NaCl, 25 mM K3PO4; D2O buffer, pH 6.0, 10 °C; 0.60 mM each; 1:1 model assumed, self-association neglected

Ka [mM⁻¹]	SMILES
150	CCc1c2c(nc3ccc(O)cc13)-c1cc3c(c(=O)n1[C@@H]2CN1CCCC1)COC(=O)[C@]3(O)CC
76	CCc1c2c(nc3ccc(O)cc13)-c1cc3c(c(=O)n1[C@H]2CN1CCCC1)COC(=O)[C@]3(O)CC
